Like-named read-outs stand apart in the source and are kept apart here.
Columns and labels:
[1] = target: CDK2/cyclin E (Homo sapiens, UniProt P24941); assay: KinaseProfile radiometric protein kinase assay, CDK2/cyclin E; type: biochemical
Description: (§1) The KinaseProfile radiometric protein kinase assay was used to evaluate the inhibitory activity of the compounds against CDK2/cyclin E, CDK4/cyclin D, CDK6/cyclin D, CDK7/cyclin H and CDK9/cyclin T.
(§2) The compounds were prepared in 100% DMSO at a final 50× stock concentration. The working stock solution was added as the first component to the assay wells. CDK2/cyclin E, CDK4/cyclin D, CDK6/cyclin D, CDK7/cyclin H, and CDK9/cyclin T were added in their respective kinase buffers: (CDK4: 8 mM MOPS pH 7.0, 0.2 mM EDTA, 0.03% BSA, 0.03% Tween 20, 20 mM DTT, and 0.2 mg/ml Rb fragment, 10 mM Magnesium acetate; CDK2, CDK6: 8 mM MOPS pH 7.0, 0.2 mM EDTA, 0.1 mg/mL histone H1, 10 mM Magnesium acetate; CDK7: 8 mM MOPS pH 7.0, 0.2 mM EDTA, 500 μM peptide, 10 mM Magnesium acetate; CDK9: 8 mM MOPS pH 7.0, 0.2 mM EDTA, 100 μM […], 10 mM Magnesium acetate) and [γ-^33 P-ATP] was included in the reaction mixture. The reaction was initiated by the addition of the Mg/ATP mixture and incubated at room temperature for 40 minutes. The reaction was terminated by the addition of 0.5% phosphoric acid. Then, 10 μL of the reaction mixture was spotted onto P30 filter pads, washed four times (1 minute each) with 0.425% phosphoric acid, followed by a single wash with methanol. The pads were then dried and counted. The data were recorded, inhibition rates were calculated, and IC50 values were determined accordingly. Table 2 summarizes the in vitro enzymatic inhibitory activity of the compounds of the present application.

[2] = tested on: MCF-7 human breast cancer cells; assay: Cell viability assay (CELLTITER-GLO); type: cell-based; conditions: MCF7, 168 h, MCF-7 cells, 7 days
Description: The cell viability of MCF-7 human breast cancer cells under standard culture conditions was assessed using the CELLTITER-GLO assay. MCF-7 cells were seeded at 3,000 cells per well in 96-well plates and incubated overnight in a CO2 incubator. The next day, serial dilutions of Compound 1 at various concentrations were added to the wells. The plates were returned to the incubator and cultured for 7 days. After 7 days, the plates were equilibrated at room temperature for 30 minutes. Subsequently, 100 μL of CELLTITER-GLO detection solution was added. The cells were mixed on an orbital shaker for 5 min and then incubated for additional 10 min. The plate was read with an ENVISION reader. Data were processed and analyzed to determine the IC50 values.

[3] = target: CDK4/cyclin D (Homo sapiens, UniProt P11802); assay: KinaseProfile radiometric protein kinase assay, CDK4/cyclin D; type: biochemical
Description: as §1, §2

[4] = tested on: 5-FU-induced diarrhea model; assay: 5-FU-induced diarrhea model, 5-FU 3-day model; type: in vivo, Balb/c mice; conditions: 5-FU 60 mg/kg once a day for 3 days, mice
Description: (§3) The 5-FU-induced diarrhea model was used as an experimental model of the present invention to evaluate the in vivo activity of the compounds.
Balb/c mice (20-25 g, 7-8 weeks old, Jihui) were acclimated for one week and then randomly assigned to 3 groups (n=10 per group): control group, 5-FU group, and CDK inhibitor group. […] […] […] From Day 1 to Day 7, diarrhea severity was assessed daily for each mouse according to the diarrhea scoring system.
(§4) The diarrhea scoring system was based on the method by Akinobu Kurita (Cancer Chemother Pharmacol 2000; 46:211-20), Grade 0: normal stool; Grade 1: mild diarrhea, slightly soft stool and wet stool; Grade 2: moderate diarrhea, loose stool with slight perianal staining; Grade 3: severe diarrhea, loose watery stool with severe perianal staining.
(§5) The diarrhea relief rate (%) was calculated as follows: […]

[5] = target: CDK7/cyclin H (Homo sapiens, UniProt P50613); assay: KinaseProfile radiometric protein kinase assay, CDK7/cyclin H; type: biochemical
Description: as §1, §2

[6] = tested on: Human colorectal cancer COLO205 cells; assay: Cell apoptosis assay (Caspase-Glo 3/7), 5-FU-induced apoptosis; type: cell-based
Description: The Caspase-Glo® 3/7 assay was employed to evaluate the protective effect of the compounds of the present invention against 5-fluorouracil (5-FU)-induced apoptosis. Human colorectal cancer COLO205 cells were cultured in RPMI 1640 medium (Invitrogen) in an incubator at 37° C. with 5% CO2.
COLO205 cells were seeded in 96-well plates at a density of 4,000 cells per well and incubated overnight. On the following day, serially diluted concentrations of Compound 1 were added to the wells and incubated for 16 hours. Afterward, 5-FU was added and the cells were incubated for an additional 48 hours. Subsequently, Caspase-Glo® 3/7 reagent (100 μL) was added to each well. The cells were mixed on an orbital shaker for 10 min and incubated at room temperature for 2 h. After an additional 10-minute incubation, the plate was measured using the Envision instrument and the data was processed. Relief rate (%)=(5-FU group−CDK group)/5-FU group×100%.

[7] = tested on: 5-FU-induced diarrhea model; assay: 5-FU-induced diarrhea model, 5-FU 1-day model; type: in vivo, Balb/c mice; conditions: 5-FU 175 mg/kg once a day, mice
Text: as §3
Balb/c mice (20-25 g, 7-8 weeks old, Jihui) were acclimated for one week and then randomly assigned to 3 groups (n=10 per group): control group, 5-FU group, and CDK inhibitor group. The control group received the same vehicle as the CDK inhibitor group by oral gavage, followed by injection of the same vehicle as the 5-FU group. The 5-FU group received the same vehicle by oral gavage as the CDK inhibitor group, followed by 5-FU injection. The CDK inhibitor group received oral administration of the CDK inhibitor, followed by 5-FU injection. From day 1 to day 7, the severity of diarrhea was assessed for each mouse according to the diarrhea scoring system.
as §4, §5

[8] = 25 mg/kg oral twice a day for 3.5 days
[9] = 50 mg/kg oral twice a day for 3 days

Sequence of CDK7/cyclin H (P50613 whole entry): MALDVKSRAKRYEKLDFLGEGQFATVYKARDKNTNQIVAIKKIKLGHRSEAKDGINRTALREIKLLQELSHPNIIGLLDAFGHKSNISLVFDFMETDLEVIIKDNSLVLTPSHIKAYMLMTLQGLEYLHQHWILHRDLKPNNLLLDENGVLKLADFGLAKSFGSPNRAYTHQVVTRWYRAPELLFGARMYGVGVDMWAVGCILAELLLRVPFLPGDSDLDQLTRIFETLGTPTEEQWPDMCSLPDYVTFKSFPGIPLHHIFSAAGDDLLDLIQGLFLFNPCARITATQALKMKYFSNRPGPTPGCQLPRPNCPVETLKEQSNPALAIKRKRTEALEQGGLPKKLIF
Sequence of CDK7/cyclin H (P51946 whole entry partner): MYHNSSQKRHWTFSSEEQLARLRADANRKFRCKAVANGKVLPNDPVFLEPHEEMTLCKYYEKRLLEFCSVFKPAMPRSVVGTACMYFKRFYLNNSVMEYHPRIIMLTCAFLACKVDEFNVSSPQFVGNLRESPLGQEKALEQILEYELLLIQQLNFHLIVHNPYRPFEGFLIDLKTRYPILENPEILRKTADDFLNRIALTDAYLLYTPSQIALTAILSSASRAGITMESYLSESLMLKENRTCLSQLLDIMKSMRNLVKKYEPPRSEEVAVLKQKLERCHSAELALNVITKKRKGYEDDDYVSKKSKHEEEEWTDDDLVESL
Sequence of CDK7/cyclin H (P51948 whole entry partner): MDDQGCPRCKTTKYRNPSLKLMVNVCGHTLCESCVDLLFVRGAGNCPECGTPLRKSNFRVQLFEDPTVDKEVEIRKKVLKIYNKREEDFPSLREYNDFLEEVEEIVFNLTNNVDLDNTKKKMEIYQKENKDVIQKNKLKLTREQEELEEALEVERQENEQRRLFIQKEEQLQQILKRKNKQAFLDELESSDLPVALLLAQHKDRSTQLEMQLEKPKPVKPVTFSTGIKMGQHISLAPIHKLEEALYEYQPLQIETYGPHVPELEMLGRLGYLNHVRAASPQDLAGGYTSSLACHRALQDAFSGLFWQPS
Sequence of CDK4/cyclin D (P11802 whole entry): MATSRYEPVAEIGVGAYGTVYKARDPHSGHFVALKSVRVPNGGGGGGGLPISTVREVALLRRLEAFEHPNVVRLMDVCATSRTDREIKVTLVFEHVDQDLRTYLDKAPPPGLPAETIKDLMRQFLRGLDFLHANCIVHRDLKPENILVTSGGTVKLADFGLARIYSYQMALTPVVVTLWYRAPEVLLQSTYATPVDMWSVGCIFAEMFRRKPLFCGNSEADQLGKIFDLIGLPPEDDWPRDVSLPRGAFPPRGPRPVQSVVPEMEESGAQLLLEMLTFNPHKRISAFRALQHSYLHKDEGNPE
Sequence of CDK4/cyclin D (P30281 whole entry partner): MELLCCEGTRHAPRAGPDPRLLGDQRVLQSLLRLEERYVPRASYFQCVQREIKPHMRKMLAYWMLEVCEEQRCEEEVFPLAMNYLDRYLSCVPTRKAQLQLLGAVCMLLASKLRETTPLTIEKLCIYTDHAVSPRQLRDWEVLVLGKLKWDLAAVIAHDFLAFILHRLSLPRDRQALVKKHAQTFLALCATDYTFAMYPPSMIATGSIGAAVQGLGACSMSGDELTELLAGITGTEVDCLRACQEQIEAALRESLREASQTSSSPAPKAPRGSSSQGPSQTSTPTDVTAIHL

## CC(=O)c1c(C)c2cnc(Nc3ccc(N4CCN(S(=O)(=O)NCCCN)CC4)cn3)nc2n(C2CCCC2)c1=O [Compound 4]
[1]
  IC50: > 3000 nM
[2]; read-out: Absolute IC 50
  IC50: < 1000 nM
[2]; read-out: Relative IC 50
  IC50: < 1000 nM
[3]
  IC50: < 50 nM
[4]; 5 mg/kg oral twice a day for 3 days
  diarrhea relief rate: 30%
[4]; 10 mg/kg oral twice a day for 3.5 days
  diarrhea relief rate: 50%
[4]; 10 mg/kg oral twice a day for 4 days
  diarrhea relief rate: 40%
[4]; [8]
  diarrhea relief rate: 55%
[4]; [9]
  diarrhea relief rate: 60%
[4]; 100 mg/kg oral twice a day for 3 days
  diarrhea relief rate: 40%
[5]
  IC50: > 3000 nM
[6]; concentration 10 μM
  Relief rate of 5-FU -induced cell apoptosis: 40%
[6]; concentration 25 μM
  Relief rate of 5-FU -induced cell apoptosis: 50%
[6]; concentration 50 μM
  Relief rate of 5-FU -induced cell apoptosis: 50%
[6]; concentration 100 μM
  Relief rate of 5-FU -induced cell apoptosis: 30%
[7]; 10 mg/kg oral, 8 hours before 5-FU and 4 hours after 5-FU
  diarrhea relief rate: 25%
[7]; 25 mg/kg oral, 6 hours before and 6 hours after 5-FU
  diarrhea relief rate: 80%
[7]; 50 mg/kg oral, 12 hours before 5-FU
  diarrhea relief rate: 70%
[7]; 10 0 mg/kg oral, 8 hours before 5-FU and 4 hours after 5-FU
  diarrhea relief rate: 25%

## CC(=O)c1c(C)c2cnc(Nc3ccc(N4CCN(S(=O)(=O)NCC(C)(C)N)CC4)cn3)nc2n(C2CCCC2)c1=O [Compound 2]
[1]
  IC50: > 10000 nM
[2]; read-out: Absolute IC 50
  IC50: < 500 nM
[2]; read-out: Relative IC 50
  IC50: < 1000 nM
[3]
  IC50: < 50 nM
[4]; 10 mg/kg oral twice a day for 3 days
  diarrhea relief rate: 25%
[4]; 25 mg/kg oral twice a day for 3 days
  diarrhea relief rate: 40%
[4]; [8]
  diarrhea relief rate: 50%
[4]; [9]
  diarrhea relief rate: 60%
[4]; 50 mg/kg oral twice a day for 4 days
  diarrhea relief rate: 40%
[4]; 100 mg/kg oral twice a day for 3.5 days
  diarrhea relief rate: 50%
[5]
  IC50: > 3000 nM
[6]; concentration 1 μM
  Relief rate of 5-FU -induced cell apoptosis: 40%
[6]; concentration 5 μM
  Relief rate of 5-FU -induced cell apoptosis: 50%
[6]; concentration 10 μM
  Relief rate of 5-FU -induced cell apoptosis: 70%
[6]; concentration 50 μM
  Relief rate of 5-FU -induced cell apoptosis: 40%
[7]; 25 mg/kg oral, 8 hours before 5-FU and 4 hours after 5-FU
  diarrhea relief rate: 60%
[7]; 25 mg/kg oral, 12 hours before and 12 hours after 5-FU
  diarrhea relief rate: 40%
[7]; 50 mg/kg oral, 6 hours before and 6 hours after 5-FU
  diarrhea relief rate: 60%
[7]; 100 mg/kg oral, 24 hours before 5-FU and 0 hours after 5-FU
  diarrhea relief rate: 40%
